T/C data for ten compounds are collected here from PubChem BioAssay AID192 (DTP/NCI, 2004).

The assay concerns BDF1 mice, B16 melanoma ip, median survival T/C. As to the kind of experiment: NCI In Vivo Anticancer Drug Screen. Data for tumor model B16 Melanoma (intraperitoneal) in B6D2F1 (BDF1) mice. To be noted: endpoint: median survival time, higher = longer survival. In a few lines: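 Read-out: survival or tumor size, given as treated/control ratio. Controls received vehicle only; animals bore transplantable tumors.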

[1] abbreviates: dose: 100.0 mg/kg/injection, schedule: Q04DX003 (ip), vehicle: saline with Tween-80.
Where [2] appears, read: dose: 200.0 mg/kg/injection, schedule: Q04DX003 (ip), vehicle: saline with Tween-80.
[3] abbreviates: dose: 3.12 mg/kg/injection, schedule: Q01DX009 (ip), vehicle: saline.
Where [4] appears, read: dose: 6.25 mg/kg/injection, schedule: Q01DX009 (ip), vehicle: saline.
The mark [5] stands for this setting: dose: 12.5 mg/kg/injection, schedule: Q01DX009 (ip), vehicle: saline.
Where [6] appears, read: dose: 25.0 mg/kg/injection, schedule: Q01DX009 (ip), vehicle: saline.

Toxic doses and inconclusive results are not listed.

In the case of `CC(C)=Cc1ccccc1`, the T/C is, setting by setting: (dose: 100.0 mg/kg/injection, schedule: Q01DX009 (ip), vehicle: saline with Tween-80) 95 % of control; under setting [1], 95 % of control; (dose: 200.0 mg/kg/injection, schedule: Q01DX009 (ip), vehicle: saline with Tween-80) 86 % of control; under setting [2], 93 % of control.
As to `COc1cc2oc(=O)ccc2cc1[C@@H]1OC(=O)C2(C)O[C@@H]12` (stereo not given in full), the T/C reads like this: (dose: 0.63 mg/kg/injection, schedule: Q01DX009 (ip), vehicle: distilled water + Tween-80) 103 % of control; (dose: 1.25 mg/kg/injection, schedule: Q01DX009 (ip), vehicle: distilled water + Tween-80) 95 % of control; (dose: 5.0 mg/kg/injection, schedule: Q01DX009 (ip), vehicle: distilled water + Tween-80) 102 % of control; (dose: 10.0 mg/kg/injection, schedule: Q01DX009 (ip), vehicle: distilled water + Tween-80) 97 % of control.
As to `CCCCc1ccc(-n2c(C)c(COC(=O)NC)c(COC(=O)NC)c2C)cc1`, for the setting “dose: 25.0 mg/kg/injection, schedule: Q01DX009 (ip), vehicle: Klucel (hydroxypropylcellulose) (HPC)”, the T/C is 159 % of control.
Regarding `COC(=O)C(C(=O)OC)C(Br)(OC(C)=O)OC(C)=O`, the T/C reads like this: (dose: 50.0 mg/kg/injection, schedule: Q04DX003 (ip), vehicle: saline with Tween-80) 105 % of control; under setting [1], 95 % of control; under setting [2], 99 % of control; (dose: 400.0 mg/kg/injection, schedule: Q04DX003 (ip), vehicle: saline with Tween-80) 103 % of control.
As for `N=C(N)SCCCN`, the T/C by setting is: (dose: 100.0 mg/kg/injection, schedule: Q04DX003 (ip), vehicle: saline) 109 % of control; (dose: 200.0 mg/kg/injection, schedule: Q01DX009 (ip), vehicle: saline) 93 % of control; (dose: 200.0 mg/kg/injection, schedule: Q04DX003 (ip), vehicle: saline) 104 % of control.
As for `C[CH2][Sn]([CH2]C)([O]S(=O)(=O)CC12CCC(CC1=O)C2(C)C)[O]S(=O)(=O)CC12CCC(CC1=O)C2(C)C`, the T/C by setting is: (dose: 1.56 mg/kg/injection, schedule: Q01DX009 (ip), vehicle: saline) 100 % of control; under setting [3], 108 % of control; under setting [4], 115 % of control; under setting [5], 100 % of control; under setting [6], 96 % of control.
For the compound `O=[N+]([O-])c1ccc([S][Pb]([c]2ccccc2)([c]2ccccc2)[c]2ccccc2)cc1`, the T/C (dose: 6.25 mg/kg/injection, schedule: Q04DX003 (ip), vehicle: Klucel (hydroxypropylcellulose) (HPC)) was 94 % of control; the T/C (dose: 12.5 mg/kg/injection, schedule: Q04DX003 (ip), vehicle: Klucel (hydroxypropylcellulose) (HPC)) is 97 % of control; the T/C (dose: 25.0 mg/kg/injection, schedule: Q04DX003 (ip), vehicle: Klucel (hydroxypropylcellulose) (HPC)) was 93 % of control; the T/C (dose: 50.0 mg/kg/injection, schedule: Q04DX003 (ip), vehicle: Klucel (hydroxypropylcellulose) (HPC)) is 88 % of control.
`Brc1ccc(C[N+]23CN4CN(CN(C4)C2)C3)cc1`: the T/C (dose: 100.0 mg/kg/injection, schedule: Q01DX009 (ip), vehicle: Klucel (hydroxypropylcellulose) (HPC)) was 121 % of control and the T/C (dose: 200.0 mg/kg/injection, schedule: Q01DX009 (ip), vehicle: Klucel (hydroxypropylcellulose) (HPC)) is 115 % of control.
In the case of `CC(N)C(O)c1cccc(O)c1` (stereo not given), the T/C under setting [4] was 94 % of control; the T/C under setting [5] is 102 % of control; the T/C under setting [6] is 105 % of control; the T/C (dose: 50.0 mg/kg/injection, schedule: Q01DX009 (ip), vehicle: saline) was 100 % of control.
On to `CCCCCCCCCCCCCCCCCCOCC(COP(=O)([O-])OCC[N+](C)(C)C)OC` (stereo not given), for which the T/C is 91 % of control under setting [3], 95 % of control under setting [4], 92 % of control under setting [5] and 87 % of control under setting [6].
